*: point of attachment. pNA = O=[N+]([O-])c1ccc(N*)cc1; AMC = Cc1cc(=O)oc2cc(N*)ccc12
Tests used:
[1] = target: T1, recombinant human caspase-3 (CPP32) (Homo sapiens, UniProt P42574); assay: Fluorimetric peptide substrate cleavage assay, caspase-3; assay type: biochemical; details: fluorimetric in vitro assay
T1 construct: purified, active recombinant human caspase-3 (CPP32); purchased BD Biosciences Pharmingen, Heidelberg, Germany
T1 sequence (P42574 29-175 limits assumed): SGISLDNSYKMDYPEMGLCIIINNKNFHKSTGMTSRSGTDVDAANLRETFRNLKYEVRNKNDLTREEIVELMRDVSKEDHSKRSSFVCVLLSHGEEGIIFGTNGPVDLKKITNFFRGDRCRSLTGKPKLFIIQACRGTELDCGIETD
T1 sequence (P42574 176-277 limits assumed): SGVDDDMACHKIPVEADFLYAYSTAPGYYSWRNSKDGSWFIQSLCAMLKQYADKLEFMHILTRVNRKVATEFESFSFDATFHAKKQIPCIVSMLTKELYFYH
Method: The rate of caspase-3 enzyme activity could be measured by enzymatic cleavage and release of AMC from the Ac-DEVD-AMC caspase substrate (Biosyntan, Berlin, Germany). This parameter was measured as emission at 460 nm upon excitation at 380 nm using U.V. spectrofluorometry.
Ac-DFVE-AMC was synthesized by Biosyntan, Berlin, Germany, with a purity of 93.5%. The peptide lyophilised as trifluoracetic acid salt was reconstituted in DMSO to 100 mM. 5 μg of purified, active recombinant human caspase-3 (CPP32) from BD Biosciences Pharmingen, Heidelberg, Germany, were diluted in 100 μl 50 mM Tris, pH 8.0, with 100 mM NaCl, 50 mM imidazole.
The reaction buffer contained 20 mM HEPES, 100 mM NaCl, 10 mM DTT, 1 mM EDTA, 0.1 % (w/v) CHAPS, 10% sucrose, pH 7.2 and the indicated concentrations of Ac-DFVE-AMC. Caspase-3 was added to reaction mixture at a final concentration of 3 nM.
After preincubation for 10 min at 37° C., the released fluorogenic AMC was monitored every second minute for 20 min in a spectrofluorometer at an excitation wavelength of 380 nm and an emission wavelength of 460 nm.
Initial velocities and substrate concentrations were fit by non linear regression to the Michaelis-Menten equation. Lineweaver-Burk plots were calculated.

caspase-7 = target: T2, caspase-7 (Homo sapiens, UniProt P55210); assay: Fluorimetric peptide substrate cleavage assay, caspase-7; assay type: biochemical; details: for cleavage of peptide substrate by caspase-7: fluorimetric in vitro assay
T2 sequence (P55210 24-198 limits assumed): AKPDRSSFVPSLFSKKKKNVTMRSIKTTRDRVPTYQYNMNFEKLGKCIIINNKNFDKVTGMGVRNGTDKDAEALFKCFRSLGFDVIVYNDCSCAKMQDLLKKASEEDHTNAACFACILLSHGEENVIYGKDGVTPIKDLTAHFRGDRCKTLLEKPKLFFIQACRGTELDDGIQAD
T2 sequence (P55210 207-303 limits assumed): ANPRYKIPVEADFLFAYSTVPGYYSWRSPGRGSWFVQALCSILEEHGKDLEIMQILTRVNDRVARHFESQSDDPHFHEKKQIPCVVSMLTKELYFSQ
From the text: (§1) FIG. 8: Effect of different proteases—other caspases and calpain—on cleavage of the peptide substrate Ac-DFVE-AMC. The 1/KM-value for caspase-3 was normalized to 1, and 1/KM-values of other caspases/proteases are shown in relation to that value. […] The functional proteolytic activity of all proteases used was confirmed with the typical peptide substrate of each protease.
To this end, fluorimetric in vitro assays using the specific cleavage sites coupled to indicator dyes were established. Caspase-3 and the structurally almost identical caspase-7 (Wei et al., 2000) cleaved both substrates, DEVD and DFVE, with a highly reproducible Michaelis-Menten kinetic. […] We measured a KM-value for DEVD which compared well to existing literature data (Table 1), whereas the KM-value for DFVE was in the range of some other rare substrates of caspase-3 (Table 1). This differential substrate affinity allows to screen for specific inhibitors of vMLC1 cleavage, which would, however, not affect the cleavage of most other known substrates of caspase-3 and 7.
(§2) As p35 inhibits all effector caspases (subtypes 1,3,6,7,8 and 10; e.g., Zhou et al., Biochemistry 1998; 37:10757), our concern was whether the observed beneficial effects of p35 in heart failure were really due to inhibition of caspase-3 and of the structurally almost identical caspase-7. Especially, we sought to exclude that the decrease in vMLC1 cleavage in the presence of p35 was due to predominant inhibition of a different caspase, and to exclude that the cleavage of vMLC1 was induced by caspase-3 only indirectly acting via other effector caspases. Therefore, we tested all these enzymes for their capacity to cleave Ac-DFVE-AMC. […] However, the highly homologous caspase-7 cleaved the new substrate DFVE with almost 1 log scale lower affinity compared to caspase-3.

caspase-3 = target: T3, caspase-3 (Homo sapiens, UniProt P42574); details: chromogenic peptide substrates; J Biol Chem. 1997 Apr 11; 272(15):9677-82; cited from earlier work
T3 sequence (P42574 29-175 limits assumed): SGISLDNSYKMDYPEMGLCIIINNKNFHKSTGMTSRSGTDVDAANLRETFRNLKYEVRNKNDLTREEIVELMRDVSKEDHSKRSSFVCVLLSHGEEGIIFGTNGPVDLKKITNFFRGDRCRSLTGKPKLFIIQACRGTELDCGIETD
T3 sequence (P42574 176-277 limits assumed): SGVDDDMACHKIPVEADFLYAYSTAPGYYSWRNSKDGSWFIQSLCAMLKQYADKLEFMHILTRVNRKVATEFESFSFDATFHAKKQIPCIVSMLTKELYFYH

calpain-I = target: T4, calpain-I (Homo sapiens, UniProt P07384); assay: Ac-DFVE-AMC cleavage by calpain-I; assay type: biochemical; details: physiological substrate concentrations
T4 sequence (P07384 1-714): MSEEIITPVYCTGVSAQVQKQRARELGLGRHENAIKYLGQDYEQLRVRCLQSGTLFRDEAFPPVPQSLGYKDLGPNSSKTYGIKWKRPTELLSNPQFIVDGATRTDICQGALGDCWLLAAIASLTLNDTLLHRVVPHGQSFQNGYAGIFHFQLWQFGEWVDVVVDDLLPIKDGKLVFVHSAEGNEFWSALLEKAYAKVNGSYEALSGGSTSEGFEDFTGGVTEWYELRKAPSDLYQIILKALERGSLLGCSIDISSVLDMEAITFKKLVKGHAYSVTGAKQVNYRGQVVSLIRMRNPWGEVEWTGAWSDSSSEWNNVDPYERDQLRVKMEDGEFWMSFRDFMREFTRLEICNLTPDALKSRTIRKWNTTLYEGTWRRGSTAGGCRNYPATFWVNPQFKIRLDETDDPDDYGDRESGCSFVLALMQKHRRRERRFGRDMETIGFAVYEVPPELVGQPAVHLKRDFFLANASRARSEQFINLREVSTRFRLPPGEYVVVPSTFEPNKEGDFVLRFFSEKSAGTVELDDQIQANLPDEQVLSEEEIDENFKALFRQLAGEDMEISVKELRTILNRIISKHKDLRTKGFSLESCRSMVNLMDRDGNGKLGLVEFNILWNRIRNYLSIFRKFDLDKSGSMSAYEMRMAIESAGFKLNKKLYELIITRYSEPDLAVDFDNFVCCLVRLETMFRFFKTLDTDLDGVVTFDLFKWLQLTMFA
T4 sequence (P04632 1-268 partner): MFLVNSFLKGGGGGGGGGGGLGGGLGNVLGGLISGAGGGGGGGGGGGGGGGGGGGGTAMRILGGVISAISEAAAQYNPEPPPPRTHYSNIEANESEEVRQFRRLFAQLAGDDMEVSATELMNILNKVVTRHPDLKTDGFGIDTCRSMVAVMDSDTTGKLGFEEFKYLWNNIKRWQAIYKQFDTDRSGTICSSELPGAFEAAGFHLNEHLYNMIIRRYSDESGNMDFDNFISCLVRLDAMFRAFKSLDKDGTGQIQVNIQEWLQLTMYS
From the text: as §1, §2

other caspases = assay: Ac-DFVE-AMC cleavage by other caspases; assay type: biochemical; details: physiological substrate concentrations
From the text: as §1, §2

[2] = system: caspase-3 activation in failing myocardium; details: rabbit CHF, rapid ventricular pacing; Laugwitz et al., 2001; cited from earlier work

Ac-DEVD-AMC
cleavage of peptide substrate by caspase-3 [1]: cleaved | cleavage of peptide substrate by caspase-7 (caspase-7): cleaved

Ac-DEVD-pNA
Km (caspase-3): 11 µM

Ac-DFVE-{AMC}
cleavage of substrate by calpain-I (calpain-I): no cleavage was detectable | cleavage of peptide substrate by caspase-3 [1]: can specifically cleave | cleavage of peptide substrate by caspase-7 (caspase-7): can specifically cleave | affinity of caspase-7 for the substrate, lower compared to caspase-3 (caspase-7; relative to caspase-3): ~1 log scale | cleavage of substrate by other caspases (other caspases): no cleavage was detectable

Ac-DQMD-pNA
Km (caspase-3): 44 µM

Ac-VDVAD-pNA
Km (caspase-3): 67 µM

Ac-VEID-pNA
Km (caspase-3): 250 µM

Ac-VQVD-pNA
Km (caspase-3): 510 µM

Ac-YEVD-pNA
Km (caspase-3): 370 µM

B1: p35: potent caspase inhibitor p35, given by adenovirus-mediated gene delivery (protein, UniProt P08160 1-299, looked up)
Early 35 kDa protein: MCVIFPVEIDVSQTIIRDCQVDKQTRELVYINKIMNTQLTKPVLMMFNISGPIRSVTRKNNNLRDRIKSKVDEQFDQLERDYSDQMDGFHDSIKYFKDEHYSVSCQNGSVLKSKFAKILKSHDYTDKKSIEAYEKYCLPKLVDERNDYYVAVCVLKPGFENGSNQVLSFEYNPIGNKVIVPFAHEINDTGLYEYDVVAYVDSVQFDGEQFEEFVQSLILPSSFKNSEKVLYYNEASKNKSMIYKALEFTTESSWGKSEKYNWKIFCNGFIYDKKSKVLYVKLHNVTSALNKNVILNTIK
modifications: adenovirus-delivered
effect of in vivo transcoronary gene delivery in failing myocardium [2]: positive impact on sarcomeric organization and contractile performance
